Here are results for 4 molecules from PubChem BioAssay AID1259411 (Chemical Carcinogenesis Research Information System (CCRIS), 2018).

The data set concerns rodent carcinogenicity bioassays, tumor incidence. Nature of the data set: CCRIS carcinogenicity studies. Summed up:
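NCI-built, expert-reviewed records of carcinogenicity and related test outcomes (mutagenicity, tumor promotion/inhibition) compiled from published and report sources, historical span 1985-2011, not updated.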

Active and inactive are the calls of the source. No rule for the calls is given here.

As to `O=NO`, the carcinogen call (Species: MOUSE, Strain/Sex: B6C3F1/FEMALE, Route: ORAL, Dose: 0, 30.7, 310 MG/D IN DRINKING WATER FOR LIFE ADMINISTERED TO MICE OF MOTHERS EXPOSED TO SAME DOSES THROUGH PREGNANCY AND, Dose: 0, 30.7, 310 MG/D IN DRINKING WATER FOR LIFE ADMINISTERED TO MICE OF MOTHERS EXPOSED TO SAME DOSES THROUGH PREGNANCY AND) is “inactive; negative”; the carcinogen call (Species: MOUSE, Strain/Sex: B6C3F1/FEMALE, Route: ORAL, Dose: 0, 750, 1500, 3000 PPM IN DRINKING WATER FOR 104-105 WK (STUDY DURATION: 104-105 WK), Dose: 0, 750, 1500, 3000 PPM IN DRINKING WATER FOR 104-105 WK (STUDY DURATION: 104-105 WK), Tumor Site: Type of Lesion: FORESTOMACH: SQUAMOUS CELL PAPILLOMA OR CARCINOMA) is listed as “equivocal”; the carcinogen call (Species: MOUSE, Strain/Sex: B6C3F1/MALE, Route: ORAL, Dose: 0, 30.7, 310 MG/D IN DRINKING WATER FOR LIFE ADMINISTERED TO MICE OF MOTHERS EXPOSED TO SAME DOSES THROUGH PREGNANCY AND, Dose: 0, 30.7, 310 MG/D IN DRINKING WATER FOR LIFE ADMINISTERED TO MICE OF MOTHERS EXPOSED TO SAME DOSES THROUGH PREGNANCY AND) is “inactive; negative”; the carcinogen call (Species: MOUSE, Strain/Sex: B6C3F1/MALE, Route: ORAL, Dose: 0, 750, 1,500, 3,000 PPM IN DRINKING WATER FOR 104-105 WK (STUDY DURATION: 104-105 WK), Dose: 0, 750, 1,500, 3,000 PPM IN DRINKING WATER FOR 104-105 WK (STUDY DURATION: 104-105 WK)) is “inactive; negative”; the carcinogen call (Species: MOUSE, Strain/Sex: C57BL/FEMALE, Route: ORAL, Dose: 0, 30.7, 310 MG/D IN DRINKING WATER BEGINNING AT 7-8 WK OF AGE AND CONTINUING FOR STUDY DURATION (STUDY DURATION: LIFE S, Dose: 0, 30.7, 310 MG/D IN DRINKING WATER BEGINNING AT 7-8 WK OF AGE AND CONTINUING FOR STUDY DURATION (STUDY DURATION: LIFE S) is “inactive; negative”; the carcinogen call (Species: MOUSE, Strain/Sex: VM/FEMALE, Route: ORAL, Dose: 0, 0.2% IN DRINKING WATER BEGINNING AT WEANING AND CONTINUING FOR DURATION STUDY (STUDY DURATION: LIFETIME)) was “inactive; negative”. For the same molecule, the carcinogen call is “inactive; negative” (Species: MOUSE, Strain/Sex: VM/FEMALE, Route: ORAL, Dose: 0, 0.2% IN DRINKING WATER BEGINNING IN UTERO AND CONTINUING FOR DURATION OF STUDY (STUDY DURATION: LIFETIME)); “inactive; negative” (Species: MOUSE, Strain/Sex: VM/MALE, Route: ORAL, Dose: 0, 0.2% IN DRINKING WATER BEGINNING AT WEANING AND CONTINUING FOR DURATION OF STUDY (STUDY DURATION: LIFETIME)); “inactive; negative” (Species: MOUSE, Strain/Sex: VM/MALE, Route: ORAL, Dose: 0, 0.2% IN DRINKING WATER BEGINNING IN UTERO AND CONTINUING FOR DURATION OF STUDY (STUDY DURATION: LIFETIME)); “inactive; negative” (Species: RAT, Strain/Sex: F344/FEMALE, Route: ORAL, Dose: 0, 750, 1,500, 3,000 PPM IN DRINKING WATER FOR 105 WK (STUDY DURATION: 105 WK), Dose: 0, 750, 1,500, 3,000 PPM IN DRINKING WATER FOR 105 WK (STUDY DURATION: 105 WK)); “inactive; negative” (Species: RAT, Strain/Sex: F344/MALE,FEMALE, Route: ORAL, Dose: 0.125, 0.25% IN DRINKING WATER FOR 2 YR); “inactive; negative” (Species: RAT, Strain/Sex: F344/MALE, Route: ORAL, Dose: 0, 0.2, 0.5% IN DIET FOR 115 WK (STUDY DURATION: 115 WK), Dose: 0, 0.2, 0.5% IN DIET FOR 115 WK (STUDY DURATION: 115 WK)). Further, the carcinogen call (Species: RAT, Strain/Sex: F344/MALE, Route: ORAL, Dose: 0, 750, 1,500, 3,000 PPM IN DRINKING WATER FOR 105 WK (STUDY DURATION: 105 WK), Dose: 0, 750, 1,500, 3,000 PPM IN DRINKING WATER FOR 105 WK (STUDY DURATION: 105 WK)) is “inactive; negative”.

With `Cc1ccc(S(=O)(=O)Oc2ccc(N=Nc3ccc(-c4ccc(N=Nc5c(O)ccc6cc(S(=O)(=O)O)cc(S(=O)(=O)O)c56)c(C)c4)cc3C)cc2)cc1`, the carcinogen call runs as follows: (Species: RAT, Strain/Sex: F344/FEMALE, Route: ORAL, Dose: 0, 150, 300, 600 PPM IN DRINKING WATER 7 D/WK FOR 104 WK (STUDY DURATION: 104 WK), Dose: 0, 150, 300, 600 PPM IN DRINKING WATER 7 D/WK FOR 104 WK (STUDY DURATION: 104 WK), Tumor Site: Type of Lesion: CLITORAL GLAND: ADENOMA OR CARCINOMA, LIVER: NEOPLASTIC NODULE OR HEPATOCELLULAR CARCINOMA, LUNG: ALVEOLAR/BRONCHIOLAR A, Tumor Site: Type of Lesion: CLITORAL GLAND: ADENOMA OR CARCINOMA, LIVER: NEOPLASTIC NODULE OR HEPATOCELLULAR CARCINOMA, LUNG: ALVEOLAR/BRONCHIOLAR A) “active; positive”; (Species: RAT, Strain/Sex: F344/MALE, Route: ORAL, Dose: 0, 70, 150, 300 PPM IN DRINKING WATER 7 D/WK FOR 104 WK (STUDY DURATION: 104 WK), Dose: 0, 70, 150, 300 PPM IN DRINKING WATER 7 D/WK FOR 104 WK (STUDY DURATION: 104 WK), Tumor Site: Type of Lesion: LIVER: NEOPLASTIC NODULE OR HEPATOCELLULAR CARCINOMA, SKIN: BASAL CELL ADENOMA, BASAL CELL CARCINOMA, KERATOACANTHOMA, S) “active; positive”.

Consider `S=[Se]`, for which the carcinogen call was “active; positive” (Species: MOUSE, Strain/Sex: B6C3F1/FEMALE, Route: GAVAGE, Dose: 0, 20, 100 MG/KG IN 0.5% AQ CMC, Dose: 0, 20, 100 MG/KG IN 0.5% AQ CMC, Tumor Site: Type of Lesion: LUNG: ALVEOLAR/BRONCHIOLAR ADENOMA OR CARCINOMA, LIVER: HEPATOCELLULAR CARCINOMA); “inactive; negative” (Species: MOUSE, Strain/Sex: B6C3F1/MALE, Route: GAVAGE, Dose: 0, 20, 100 MG/KG IN 0.5% AQ CMC, Dose: 0, 20, 100 MG/KG IN 0.5% AQ CMC); “inactive; negative” (Species: MOUSE, Strain/Sex: ICR/FEMALE, Route: DERMAL, Dose: 0, 0.5, 1.0 MG/KG IN SALINE SOLN CONT 0.5% CMC 3/WK FOR 86 WK, Dose: 0, 0.5, 1.0 MG/KG IN SALINE SOLN CONT 0.5% CMC 3/WK FOR 86 WK); “inactive; negative” (Species: MOUSE, Strain/Sex: ICR/MALE, Route: DERMAL, Dose: 0, 0.5, 1.0 MG/KG IN SALINE SOLN CONT 0.5% CMC 3/WK FOR 86 WK, Dose: 0, 0.5, 1.0 MG/KG IN SALINE SOLN CONT 0.5% CMC 3/WK FOR 86 WK); “active; positive” (Species: RAT, Strain/Sex: F344/FEMALE, Route: GAVAGE, Dose: 0, 3, 15 MG/KG IN 0.5% AQ CMC, Dose: 0, 3, 15 MG/KG IN 0.5% AQ CMC, Tumor Site: Type of Lesion: LIVER: HEPATOCELLULAR CARCINOMA OR NEOPLASTIC NODULE); “active; positive” (Species: RAT, Strain/Sex: F344/MALE, Route: GAVAGE, Dose: 0, 3, 15 MG/KG IN 0.5% AQ CMC, Dose: 0, 3, 15 MG/KG IN 0.5% AQ CMC, Tumor Site: Type of Lesion: LIVER: HEPATOCELLULAR CARCINOMA OR NEOPLASTIC NODULE).

Consider `COc1nc(C)nc(NC(=O)NS(=O)(=O)c2ccccc2Cl)n1`, for which the carcinogen call (Species: Rat, Strain/Sex: CD/Female (50/group), Route: Oral, Dose: 0, 100, 500, 2,500 ppm in diet for 2 yr, Dose: 0, 100, 500, 2,500 ppm in diet for 2 yr) is “inactive; negative (study details not given in source; purity 92-95%)” and the carcinogen call (Species: Rat, Strain/Sex: CD/Male (50/group), Route: Oral, Dose: 0, 100, 500, 2,500 ppm in diet for 2 yr, Dose: 0, 100, 500, 2,500 ppm in diet for 2 yr) is “inactive; negative (study details not given in source; purity 92-95%)”.
